In US20250296959A1, “B7-H3 TARGETING PEPTIDES AND CONSTRUCTS THEREOF” (Mariana Oncology Inc., priority 2024, published 2025):
Starred links: 1 amine or outer side, 2 acyl side, 3 side chain; linkers in the order of their positions; H or OH if unused. Positions of bridges follow the written chain, without caps; N, C: chain ends. Non-standard residues stand in square brackets, D forms with d. Residues, ends and D or L forms follow the SMILES beside them. Groups on a side chain read outwards from the residue. *: point of attachment. Ala(piperidin-4-yl) = O=C([C@H](CC1CCN([*:3])CC1)N[*:1])[*:2]; DOTA = O=C(O)CN1CCN(CC(=O)O)CCN(CC(=O)*)CCN(CC(=O)O)CC1; Phe(4-NHCONH2) = NC(=O)Nc1ccc(C[C@H](N)C(=O)O)cc1; Trp(5-F) = N[C@@H](Cc1c[nH]c2ccc(F)cc12)C(=O)O; X1 = C[C@@H](c1ccccc1)[C@H](N[*:1])C(=O)[*:2]; Ala(4-THP) = N[C@@H](CC1CCOCC1)C(=O)O; Val(3-OH) = CC(C)(O)[C@H](N)C(=O)O; pGlu = O=C1CC[C@@H](C(=O)O)N1; PEG4 = NCCOCCOCCOCCOCCC(=O)O; Tle = CC(C)(C)[C@H](N)C(=O)O; hLeu = CC(C)CC[C@H](N)C(=O)O; βAla = NCCC(=O)O

Molecular target: T1, human 4lg B7-H3 (Homo sapiens, UniProt Q5ZPR3)
T1 sequence (Q5ZPR3 29-534): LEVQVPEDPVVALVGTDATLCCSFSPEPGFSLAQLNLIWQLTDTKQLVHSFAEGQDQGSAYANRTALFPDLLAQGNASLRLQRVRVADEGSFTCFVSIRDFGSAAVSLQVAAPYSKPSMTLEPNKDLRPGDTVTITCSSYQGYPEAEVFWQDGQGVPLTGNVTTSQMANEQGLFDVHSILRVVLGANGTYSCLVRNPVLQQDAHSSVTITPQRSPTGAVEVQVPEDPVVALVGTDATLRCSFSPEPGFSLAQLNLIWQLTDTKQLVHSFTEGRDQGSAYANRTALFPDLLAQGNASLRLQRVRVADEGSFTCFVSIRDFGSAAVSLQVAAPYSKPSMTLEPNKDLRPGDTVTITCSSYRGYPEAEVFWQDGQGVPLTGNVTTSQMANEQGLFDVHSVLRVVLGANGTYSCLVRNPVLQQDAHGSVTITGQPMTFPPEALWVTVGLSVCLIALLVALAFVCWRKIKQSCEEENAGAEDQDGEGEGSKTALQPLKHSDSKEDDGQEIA
Experiment: Affinity determination by surface plasmon resonance (SPR) to 4Ig B7-H3
Conditions: SPR KD—37° C., 4Ig B7-H3; 37° C. flow cell temperature

| Compound | Kd [nM] |
| --- | --- |
| CC(C)CC[C@H](NC(=O)[C@@H]1CCC(=O)N1)C(=O)N[C@@H](Cc1ccc(O)cc1)C(=O)N[C@H]1CSSC[C@@H](C(=O)N[C@@H](Cc2c[nH]c3ccc(F)cc23)C(=O)N[C@H](C(=O)N[C@H](C(=O)N[C@H](CCCCNC(=O)[C@H](CCC(=O)O)NC(=O)CN2CCN(CC(=O)O)CCN(CC(=O)O)CCN(CC(=O)O)CC2)C(=O)O)C(C)(C)O)[C@@H](C)c2ccccc2)NC(=O)[C@H](Cc2ccc(NC(N)=O)cc2)NC(=O)[C@H](C(C)C)NC(=O)[C@H](CC(=O)O)NC(=O)[C@H](CC2CCOCC2)NC(=O)[C@H](CC2CCNCC2)NC(=O)CNC(=O)[C@H](C(C)(C)C)NC1=O [compound 505, Pyroglutamate-hLeu-Y-C-Tbg-G-PipAla-ThpA-D-V-Aph(Cbm)-C-5FW-[(2S, 3S)beta-Me-Phe]-hydroxyVal-dLys(Glu-DOTA)-COOH] ([pGlu][hLeu]YC[Tle]G[Ala(piperidin-4-yl)][Ala(4-THP)]DV[Phe(4-NHCONH2)]C[Trp(5-F)][X1][Val(3-OH)][dK]([Glu-DOTA])-OH; disulfide 4-12) | < 1 |
| CC(=O)N[C@@H](CCC(C)C)C(=O)N[C@@H](Cc1ccc(O)cc1)C(=O)N[C@H]1CSSC[C@@H](C(=O)N[C@@H](Cc2c[nH]c3ccc(F)cc23)C(=O)N[C@H](C(=O)N[C@H](C(=O)N[C@H](CCCCNC(=O)CN2CCN(CC(=O)O)CCN(CC(=O)O)CCN(CC(=O)O)CC2)C(=O)O)C(C)(C)O)[C@@H](C)c2ccccc2)NC(=O)[C@H](Cc2ccc(NC(N)=O)cc2)NC(=O)[C@H](C(C)C)NC(=O)[C@H](CC(=O)O)NC(=O)[C@H](CC2CCOCC2)NC(=O)[C@H](CC2CCNCC2)NC(=O)CNC(=O)[C@H](C(C)(C)C)NC1=O [compound 506, Ac-hLeu-Y-C-Tbg-G-PipAla-ThpA-D-V-Aph(Cbm)-C-5FW-[(2S, 3S)beta-Me-Phe]-hydroxyVal-dLys(DOTA)-COOH] (Ac-[hLeu]YC[Tle]G[Ala(piperidin-4-yl)][Ala(4-THP)]DV[Phe(4-NHCONH2)]C[Trp(5-F)][X1][Val(3-OH)][dK](DOTA)-OH; disulfide 3-11) | < 1 |
| CC(C)CC[C@H](NC(=O)[C@@H]1CCC(=O)N1)C(=O)N[C@@H](Cc1ccc(O)cc1)C(=O)N[C@H]1CSSC[C@@H](C(=O)N[C@@H](Cc2c[nH]c3ccc(F)cc23)C(=O)N[C@H](C(=O)N[C@H](C(=O)N[C@H](CCCCNC(=O)CN2CCN(CC(=O)O)CCN(CC(=O)O)CCN(CC(=O)O)CC2)C(=O)O)C(C)(C)O)[C@@H](C)c2ccccc2)NC(=O)[C@H](Cc2ccc(O)cc2)NC(=O)[C@H](C(C)C)NC(=O)[C@H](CC(=O)O)NC(=O)[C@H](CC2CCOCC2)NC(=O)[C@H](CC2CCNCC2)NC(=O)CNC(=O)[C@H](C(C)(C)C)NC1=O [compound 507, Pyroglutamate-hLeu-Y-C-Tbg-G-PipAla-ThpA-D-V-Y-C-5FW-[(2S, 3S)beta-Me-Phe]-hydroxyVal-dLys(DOTA)-COOH] ([pGlu][hLeu]YC[Tle]G[Ala(piperidin-4-yl)][Ala(4-THP)]DVYC[Trp(5-F)][X1][Val(3-OH)][dK](DOTA)-OH; disulfide 4-12) | < 1 |

The next lines start with the values.

| Kd [nM] | Compound |
| --- | --- |
| < 1 | CC(=O)N[C@@H](CCC(C)C)C(=O)N[C@@H](Cc1ccc(O)cc1)C(=O)N[C@H]1CSSC[C@@H](C(=O)N[C@@H](Cc2c[nH]c3ccc(F)cc23)C(=O)N[C@H](C(=O)N[C@H](C(=O)N[C@H](CCCCNC(=O)CN2CCN(CC(=O)O)CCN(CC(=O)O)CCN(CC(=O)O)CC2)C(=O)N[C@H](CCC(=O)O)C(=O)O)C(C)(C)O)[C@@H](C)c2ccccc2)NC(=O)[C@H](Cc2ccc(NC(N)=O)cc2)NC(=O)[C@H](C(C)C)NC(=O)[C@H](CC(=O)O)NC(=O)[C@H](CC2CCOCC2)NC(=O)[C@H](CC2CCNCC2)NC(=O)CNC(=O)[C@H](C(C)(C)C)NC1=O [compound 508, Ac-hLeu-Y-C-Tbg-G-PipAla-ThpA-D-V-Aph(Cbm)-C-5FW-[(2S, 3S)beta-Me-Phe]-hydroxyVal-dLys(DOTA)-dGlu-COOH] (Ac-[hLeu]YC[Tle]G[Ala(piperidin-4-yl)][Ala(4-THP)]DV[Phe(4-NHCONH2)]C[Trp(5-F)][X1][Val(3-OH)][dK](DOTA)[dE]-OH; disulfide 3-11) |
| < 1 | CC(=O)N[C@@H](CCC(C)C)C(=O)N[C@@H](Cc1ccc(O)cc1)C(=O)N[C@H]1CSSC[C@@H](C(=O)N[C@@H](Cc2c[nH]c3ccc(F)cc23)C(=O)N[C@H](C(=O)N[C@H](C(=O)N[C@@H](CCCCNC(=O)CN2CCN(CC(=O)O)CCN(CC(=O)O)CCN(CC(=O)O)CC2)C(=O)O)C(C)(C)O)[C@@H](C)c2ccccc2)NC(=O)[C@H](Cc2ccc(O)cc2)NC(=O)[C@H](C(C)C)NC(=O)[C@H](CC(=O)O)NC(=O)[C@H](CC2CCOCC2)NC(=O)[C@H](CC2CCNCC2)NC(=O)CNC(=O)[C@H](C(C)(C)C)NC1=O [compound 509, Ac-hLeu-Y-C-Tbg-G-PipAla-ThpA-D-V-Y-C-5FW-[(2S, 3S)beta-Me-Phe]-hydroxyVal-Lys(DOTA)-COOH] (Ac-[hLeu]YC[Tle]G[Ala(piperidin-4-yl)][Ala(4-THP)]DVYC[Trp(5-F)][X1][Val(3-OH)]K(DOTA)-OH; disulfide 3-11) |
| < 1 | CC(=O)N[C@@H](CCC(C)C)C(=O)N[C@@H](Cc1ccc(O)cc1)C(=O)N[C@H]1CSSC[C@@H](C(=O)N[C@@H](Cc2c[nH]c3ccc(F)cc23)C(=O)N[C@H](C(=O)N[C@H](C(=O)NCC(=O)O)C(C)(C)O)[C@@H](C)c2ccccc2)NC(=O)[C@H](Cc2ccc(O)cc2)NC(=O)[C@H](C(C)C)NC(=O)[C@H](CC(=O)O)NC(=O)[C@H](CC2CCN(C(=O)CCOCCOCCOCCOCCNC(=O)CN3CCN(CC(=O)O)CCN(CC(=O)O)CCN(CC(=O)O)CC3)CC2)NC(=O)[C@H](CC2CCNCC2)NC(=O)CNC(=O)[C@H](C(C)(C)C)NC1=O [compound 510, Ac-hLeu-Y-C-Tbg-G-PipAla-Pip(PEG4-DOTA)Ala-D-V-Y-C-5FW-[(2S, 3S)beta-Me-Phe]-hydroxyVal-Gly-COOH] (Ac-[hLeu]YC[Tle]G[Ala(piperidin-4-yl)][Ala(piperidin-4-yl)]([PEG4-DOTA])DVYC[Trp(5-F)][X1][Val(3-OH)]G-OH; disulfide 3-11) |
| < 1 | CC(=O)N[C@@H](CCC(C)C)C(=O)N[C@@H](Cc1ccc(O)cc1)C(=O)N[C@H]1CSSC[C@@H](C(=O)N[C@@H](Cc2c[nH]c3ccc(F)cc23)C(=O)N[C@H](C(=O)N[C@H](C(=O)NCCC(=O)O)C(C)(C)O)[C@@H](C)c2ccccc2)NC(=O)[C@H](Cc2ccc(O)cc2)NC(=O)[C@H](C(C)C)NC(=O)[C@H](CC(=O)O)NC(=O)[C@H](CC2CCN(C(=O)CCOCCOCCOCCOCCNC(=O)CN3CCN(CC(=O)O)CCN(CC(=O)O)CCN(CC(=O)O)CC3)CC2)NC(=O)[C@H](CC2CCNCC2)NC(=O)CNC(=O)[C@H](C(C)(C)C)NC1=O [compound 511, Ac-hLeu-Y-C-Tbg-G-PipAla-Pip(PEG4-DOTA)Ala-D-V-Y-C-5FW-[(2S, 3S)beta-Me-Phe]-hydroxyVal-betaAla-COOH] (Ac-[hLeu]YC[Tle]G[Ala(piperidin-4-yl)][Ala(piperidin-4-yl)]([PEG4-DOTA])DVYC[Trp(5-F)][X1][Val(3-OH)][βAla]-OH; disulfide 3-11) |
